# From ChEMBL document CHEMBL1201862, “PubChem BioAssay data set” (2004)
# Counter-ions that a name gives are not always drawn.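 Where inhibition never reached the appropriate level, the endpoint shown equals the highest concentration tested. Otherwise, values were interpolated linearly from a five-concentration, 48-hour dose response in 96-well plates. GI50 = concentration required for 50% inhibition of growth.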 The source made the active and inactive calls. Rule as the data show it: active = GI50 up to about 1.1 µM and inactive = higher.
# Columns and labels:
# Experiment in all cases: NCI tumour cell line growth inhibition, 48 h
# MDA-MB-435 = system: MDA-MB-435
# SK-OV-3 = system: SK-OV-3
# IGROV-1 = system: IGROV-1
# CCRF-CEM = system: CCRF-CEM
# K562 = system: K562
# HT-29 = system: HT-29
# UACC-257 = system: UACC-257
# LOX IMVI = system: LOX IMVI
# KM12 = system: KM12
# T47D = system: T47D
# NCI-H23 = system: NCI-H23
# M14 = system: M14
# NCI-H460 = system: NCI-H460
# OVCAR-5 = system: OVCAR-5
# HCT-116 = system: HCT-116
# 786-0 = system: 786-0
# COLO 205 = system: COLO 205
# UO-31 = system: UO-31
# SK-MEL-5 = system: SK-MEL-5
# SF-539 = system: SF-539
SMILES,GI50 (MDA-MB-435),GI50 (SK-OV-3),GI50 (IGROV-1),GI50 (CCRF-CEM),GI50 (K562),GI50 (HT-29),GI50 (UACC-257),GI50 (LOX IMVI),GI50 (KM12),GI50 (T47D),GI50 (NCI-H23),GI50 (M14),GI50 (NCI-H460),GI50 (OVCAR-5),GI50 (HCT-116),GI50 (786-0),GI50 (COLO 205),GI50 (UO-31),GI50 (SK-MEL-5),GI50 (SF-539)
C=CCN1C(=O)/C(=C/c2ccccc2)N=C1SC1OC(COC(C)=O)C(OC(C)=O)C(OC(C)=O)C1OC(C)=O (stereo not drawn),26.9 µM (inactive),38.7 µM (inactive),28.3 µM (inactive),22.5 µM (inactive),24.4 µM (inactive),32.7 µM (inactive),27.9 µM (inactive),27.2 µM (inactive),39.9 µM (inactive),27.2 µM (inactive),24.9 µM (inactive),30 µM (inactive),42.8 µM (inactive),26 µM (inactive),22.8 µM (inactive),23.9 µM (inactive),,,,
O=C(O)C(C(C(=O)O)P(=O)(O)O)P(=O)(O)O (stereo not drawn),> 100 µM (inactive),> 100 µM (inactive),> 100 µM (inactive),> 100 µM (inactive),> 100 µM (inactive),> 100 µM (inactive),,> 100 µM (inactive),> 100 µM (inactive),,,> 100 µM (inactive),,> 100 µM (inactive),> 100 µM (inactive),> 100 µM (inactive),> 100 µM (inactive),> 100 µM (inactive),> 100 µM (inactive),> 100 µM (inactive)
CCN(CC)c1ccc2c(c1)N=C1N=CC=CN1C2(c1ccc(N(C)C)cc1)c1ccc(N(C)C)cc1,,2.61 µM (inactive),10.4 µM (inactive),8.55 µM (inactive),2.3 µM (inactive),3.12 µM (inactive),5.24 µM (inactive),5.25 µM (inactive),4.42 µM (inactive),,6.95 µM (inactive),3.32 µM (inactive),5.62 µM (inactive),13.3 µM (inactive),3.85 µM (inactive),7.73 µM (inactive),2.36 µM (inactive),7.48 µM (inactive),11.9 µM (inactive),14.6 µM (inactive)
CS(=O)(=O)c1ccc(COP(N)(=O)N(CCCl)CCCl)cc1 (stereo not drawn),,> 100 µM (inactive),> 100 µM (inactive),> 100 µM (inactive),> 100 µM (inactive),> 100 µM (inactive),> 100 µM (inactive),> 100 µM (inactive),> 100 µM (inactive),,> 100 µM (inactive),> 100 µM (inactive),> 100 µM (inactive),> 100 µM (inactive),> 100 µM (inactive),> 100 µM (inactive),> 100 µM (inactive),> 100 µM (inactive),> 100 µM (inactive),> 100 µM (inactive)
CCOC(=O)c1c(NC(=O)c2cccs2)sc2c1CCC2,,,> 100 µM (inactive),> 100 µM (inactive),> 100 µM (inactive),> 100 µM (inactive),> 100 µM (inactive),,> 100 µM (inactive),> 100 µM (inactive),> 100 µM (inactive),> 100 µM (inactive),> 100 µM (inactive),> 100 µM (inactive),> 100 µM (inactive),> 100 µM (inactive),> 100 µM (inactive),> 100 µM (inactive),> 100 µM (inactive),> 100 µM (inactive)
CCCCCC/C=C\CCCCCCCCCc1cccc(O)c1C(=O)O [GINKGOLIC ACID 17:1],> 100 µM (inactive),> 100 µM (inactive),> 100 µM (inactive),99.1 µM (inactive),65.9 µM (inactive),> 100 µM (inactive),> 100 µM (inactive),,> 100 µM (inactive),> 100 µM (inactive),> 100 µM (inactive),> 100 µM (inactive),> 100 µM (inactive),> 100 µM (inactive),> 100 µM (inactive),> 100 µM (inactive),> 100 µM (inactive),> 100 µM (inactive),35.5 µM (inactive),> 100 µM (inactive)
CC(=O)OCC(Br)C1(C)CCC(C(C)(C)Br)O1 (stereo not drawn),69.5 µM (inactive),> 100 µM (inactive),80.2 µM (inactive),> 100 µM (inactive),> 100 µM (inactive),62.7 µM (inactive),12.1 µM (inactive),23.1 µM (inactive),39.8 µM (inactive),,65.5 µM (inactive),89.7 µM (inactive),57.9 µM (inactive),> 100 µM (inactive),46.8 µM (inactive),> 100 µM (inactive),51.2 µM (inactive),39.6 µM (inactive),35.9 µM (inactive),> 100 µM (inactive)
C#Cc1cccc(Nc2ncnc3cc(OCCOC)c(OCCOC)cc23)c1 [ERLOTINIB HYDROCHLORIDE],4.06 µM (inactive),0.286 µM (active),0.0857 µM (active),> 100 µM (inactive),,27.2 µM (inactive),> 100 µM (inactive),4.34 µM (inactive),18.2 µM (inactive),,41.7 µM (inactive),6.67 µM (inactive),2.31 µM (inactive),> 100 µM (inactive),6.05 µM (inactive),8.91 µM (inactive),4.99 µM (inactive),3.79 µM (inactive),1.41 µM (inactive),15.4 µM (inactive)
O=C1[C@@H]2C3SC(c4ccccc43)[C@@H]2C(=O)N1c1ccccc1,,> 83.4 µM (inactive),> 100 µM (inactive),> 100 µM (inactive),> 100 µM (inactive),> 100 µM (inactive),> 100 µM (inactive),> 100 µM (inactive),> 100 µM (inactive),,> 100 µM (inactive),> 100 µM (inactive),> 100 µM (inactive),> 100 µM (inactive),> 100 µM (inactive),> 74 µM (inactive),> 100 µM (inactive),> 100 µM (inactive),> 100 µM (inactive),> 75 µM (inactive)
N#CCc1nc(C#N)c(N)o1,> 100 µM (inactive),> 100 µM (inactive),> 100 µM (inactive),> 100 µM (inactive),,> 100 µM (inactive),> 100 µM (inactive),,> 100 µM (inactive),> 100 µM (inactive),> 100 µM (inactive),> 100 µM (inactive),> 100 µM (inactive),> 100 µM (inactive),> 100 µM (inactive),> 100 µM (inactive),> 100 µM (inactive),> 100 µM (inactive),,> 100 µM (inactive)
COC(=O)/C=C/c1cc(OC)c2oc(-c3ccc(OC)c(OC)c3)c(C(=O)OC)c2c1,> 100 µM (inactive),> 100 µM (inactive),> 100 µM (inactive),> 100 µM (inactive),> 100 µM (inactive),> 100 µM (inactive),> 100 µM (inactive),> 100 µM (inactive),> 100 µM (inactive),> 100 µM (inactive),> 100 µM (inactive),> 100 µM (inactive),> 100 µM (inactive),> 100 µM (inactive),,> 100 µM (inactive),> 100 µM (inactive),> 100 µM (inactive),> 100 µM (inactive),
O=C1CC(=O)NC(NN2C(=O)CSC2c2ccc(Cl)c(Cl)c2)=N1 (stereo not drawn),65 µM (inactive),> 100 µM (inactive),50.9 µM (inactive),19.5 µM (inactive),49.8 µM (inactive),76.2 µM (inactive),> 100 µM (inactive),,42.7 µM (inactive),> 100 µM (inactive),> 100 µM (inactive),31.6 µM (inactive),> 100 µM (inactive),> 100 µM (inactive),63.2 µM (inactive),> 100 µM (inactive),> 100 µM (inactive),> 100 µM (inactive),> 100 µM (inactive),> 100 µM (inactive)
N#CSC#CCCC#CSC#N,23 µM (inactive),16.1 µM (inactive),20.3 µM (inactive),3.1 µM (inactive),13.4 µM (inactive),21.3 µM (inactive),16.9 µM (inactive),18.7 µM (inactive),17.7 µM (inactive),,20.6 µM (inactive),12.9 µM (inactive),22.2 µM (inactive),20.6 µM (inactive),22.8 µM (inactive),20.3 µM (inactive),12.9 µM (inactive),18 µM (inactive),18.2 µM (inactive),19.5 µM (inactive)
COc1ccc(OC)c(CCc2ccccc2CC(=O)O)c1,,> 100 µM (inactive),> 100 µM (inactive),> 100 µM (inactive),> 100 µM (inactive),> 100 µM (inactive),> 100 µM (inactive),> 100 µM (inactive),> 100 µM (inactive),,> 100 µM (inactive),> 100 µM (inactive),> 100 µM (inactive),> 100 µM (inactive),> 100 µM (inactive),> 100 µM (inactive),> 100 µM (inactive),> 100 µM (inactive),> 100 µM (inactive),> 100 µM (inactive)
COc1cc(-c2nnc3n2NC=C(C(=O)O)S3)cc(OC)c1OC,,> 100 µM (inactive),> 100 µM (inactive),29.7 µM (inactive),> 43.1 µM (inactive),> 100 µM (inactive),> 100 µM (inactive),> 100 µM (inactive),> 95.1 µM (inactive),,> 100 µM (inactive),> 81.3 µM (inactive),> 71.4 µM (inactive),> 100 µM (inactive),> 55.1 µM (inactive),> 58.7 µM (inactive),> 57.5 µM (inactive),> 100 µM (inactive),> 100 µM (inactive),> 42.8 µM (inactive)
